Laboratory results: article PMC10017027, “Design and Synthesis of Novel HIV-1 NNRTIs with Bicyclic Cores and with Improved Physicochemical Properties” (Journal of Medicinal Chemistry, 2023)
≈ marks a conversion by molar mass, not a printed value. Where two headings read alike, the source gives them in different places.

How the values were obtained:
[1] = tested on: HIV-1 (IIIB strain); assay: MT-4 antiviral cytopathic effect assay, HIV-1 IIIB; format: cell-based; details: HIV-1 IIIB, WT
Method: (§1) The prepared compounds were tested for their anti-HIV-1 activity (Table 1). A viral cytopathic effect assay in MT-4 cells with HIV-1 IIIB virus was used to determine compound potency (EC50, 50% cell viability) in protecting virus induced cell killing. Compound cytotoxicity was assessed in MT-4 cells in the absence of virus (CC50, 50% cytotoxicity).
(§2) Compounds were tested in a high-throughput 384-well assay format for their ability to inhibit the virus replication-induced cytopathic effect in MT-4 cell cultures acutely infected with HIV-1 (IIIB strain), HXB2, HXB2-K103N, and HXB2-Y181C. Compounds were serially diluted (1:3) in DMSO on 384-well polypropylene plates and further diluted 200-fold into complete RPMI media (10% FBS, 1% P/S) using Biotek Micro Flow and an Agilent ECHO acoustic dispenser. Each plate contained up to eight test compounds, with negative (no drug control) and 5 μM AZT positive controls. MT-4 cells were further diluted in complete RPMI media and added to each plate using a Micro-Flo dispenser. After five days of incubation in a humidified and temperature-controlled incubator (37 °C), Cell Titer Glo (Promega) was added to the assay plates to quantify the amount of […]. EC50 and CC50 values were defined as the compound concentration that causes a 50% decrease in luminescence signal and were calculated using a sigmoidal dose-response model to generate curve fits.

[2] = tested on: E138K; details: cell culture; cited from earlier work
[3] = tested on: HIV-1 HXB2; assay: MT-4 antiviral cytopathic effect assay, HXB2 wild-type virus; format: cell-based
Method: as §1, §2

[4] = Predicted clearance in human liver microsomes; format: in vitro ADME; details: pH 7.4, 1 μM compound, read-out: HLM CLint, pred (converted)
Method: Next, microsome stability was profiled in purified human liver microsomes (HLM).
Metabolic stability of compounds was assessed using HLM (Corning cat. 457117).[52] In this assay, 10 nL compounds at a concentration of 1 mM in 100% DMSO are dispensed into 384-well polypropylene plates using the Echo 550 acoustic liquid dispenser (Labcyte). Each plate contains 384 wells with a single test compound in each well.
A solution of HLM at 2 mg/mL in 100 mM K2HPO4/KH2PO4 pH 7.4 with 0.0225 mg/mL Alamethicin from Trichoderma viride (Sigma-Aldrich cat. A4665-10MG) was incubated on ice for 15 min. 5 μL of this solution was added to individual wells following 15 min incubation at room temperature; and supplemented with 5 μL NADPH Regenerating Solution of cofactors (Corning Gentest UGT Reaction Mix solutions A and B, cat. 451200 and 451220) containing 100 mM K2HPO4/KH2PO4 pH 7.4, 2.6 mM NADP^+, 6.6 mM glucose-6-phosphate, 6.6 mM MgCl2, 0.8 U/mL glucose-6-phosphate dehydrogenase, 0.1 mM sodium citrate, and 6.8 mM uridine diphosphate-glucuronic acid. The final concentration of analyte compounds at the beginning of the reactions was 1 μM. The reactions were incubated at 37 °C, and time points of 0, 5, 15, 30, 40, 50, 60, and 70 min were collected for further analysis. Background data were collected using reactions without analyte compounds.
Upon collection of the reaction time points, samples were quenched at the set time points with 30 μL of a solution of 72% acetonitrile, 8% methanol, 0.1% formic acid, 19.9% water, and labetalol as an internal standard (IS) at a concentration of 650 nM. Reaction plates were span in a centrifuge at a speed of 4000 rcf for 30 min and 4 °C, following a dilution of the 10 μL quenched reaction into 40 μL de-ionized water, yielding assay plates.
Samples were analyzed by a solid-phase extraction coupled with a quadrupole time-of-flight mass spectrometer, using an Agilent QToF 6530 RapidFire 360 system with C4 type A solid state cartridges. Analysis was performed in either positive or negative ionization modes. Mobile phases contained 0.1% formic acid in water for loading analytes onto solid state extraction cartridges, and 0.1% formic acid in acetonitrile for elution into the mass spectrometer in positive ionization mode, or 0.1% acetic acid in water for loading and 0.1% acetic acid in acetonitrile for extraction in negative ionization mode. Peak-area ratios of integrated counts for individual compounds to IS were plotted as a semi-logarithmic chart of log versus time. Initial, linear portion of decay was fitted to a linear regression equation to derive the half-time of a compound decay.
Pharmacological parameters for an analyte compound metabolism were calculated using the equations described in Table S2.
Table S2. Pharmacological parameters for an analyte compound metabolism were
calculated using the following equations:
Intrinsic Clearance (in Cl = ln 2
int, in vitro T1/2 ∗ Conc
Intrinsic Clearance Cl = Clint, in vitro ∗ Liver Mass ∗ Yield
Predicted Hepatic Cl = Clint ∗ QH
QH (Hepatic Blood Flow) = 1.3 L/hr/kg

[5] = Solubility assessment, shake-flask method; format: physicochemical; details: for solubility: shake-flask; for HCl sol / PBS sol / solubility thermodynamic: supplement CSV
Method: Compound solubility was measured at Analiza (Cleveland, OH) by the standard shake-flask method at pH 1.2 and 7.4 and quantitated by HPLC-UV.

[6] = in vitro; format: cell-based; details: human
Method: as §1, with “cytotoxicity). […] ETV contains bromo and amino substitutions on the DAPY core. […] Likely, with the smaller cyano arm I in 1, 3, and 5, the cores could be further elaborated to optimize the compound position in the pocket and to improve potency.” for “cytotoxicity).”
as §2

[7] = tested on: HIV-1 HXB2 Y181C variant; assay: MT-4 antiviral cytopathic effect assay, HXB2-Y181C; format: cell-based; details: for EC50: Human immunodeficiency virus 1, HXB2, read-out: EC50 Y181C
Method: as §1, with “cytotoxicity). […] ETV contains bromo and amino substitutions on the DAPY core. […] Likely, with the smaller cyano arm I in 1, 3, and 5, the cores could be further elaborated to optimize the compound position in the pocket and to improve potency.” for “cytotoxicity).”
as §2

[8] = tested on: HIV-1 HXB2 K103N variant; assay: MT-4 antiviral cytopathic effect assay, HXB2-K103N; format: cell-based; details: for EC50: Human immunodeficiency virus 1, HXB2, read-out: EC50 K103N
Method: as §1, with “cytotoxicity). […] ETV contains bromo and amino substitutions on the DAPY core. […] Likely, with the smaller cyano arm I in 1, 3, and 5, the cores could be further elaborated to optimize the compound position in the pocket and to improve potency.” for “cytotoxicity).”
as §2

[9] = MDCK permeability assay (A to B); format: in vitro ADME, Canine; details: dog, MDCK
Excerpt: (§3) Compounds were further tested in a Madin–Darby Canine Kidney (MDCK) assay to evaluate their potential for oral absorption. […] Additionally, there was no trend for better permeability when comparing arm I versus arm II when matched with the same core. The size of the B ring had the greatest influence on Papp with the trend being five-membered > six-membered > seven-membered rings (Table 1).
(§4) cMdr1-KO cells were maintained in Dulbecco’s modified Eagle’s medium (DMEM) with sodium pyruvate and GlutaMax, supplemented with 1% Pen/Strep and 10% fetal bovine serum in an incubator set at 37 °C, 90% humidity, and 5% CO2. MDCKII- cMdr1-KO cells were grown to confluence over 3 days on 96-well PET plates with 1 μm pore size, polyester membrane (Corning 3392). Experiments were run using HBSS donor buffer from Invitrogen containing an additional 10 mM HEPES, 15 mM glucose, and 0.1% BSA adjusted to pH 7.4. The receiver well had HBSS buffer supplemented with 1% BSA, 10 mM HEPES, 15 mM glucose, and the pH was adjusted to 7.4. TEER values were read to test membrane integrity at the beginning of the assay. The experiment was started by the addition of dosing solutions containing test compounds. Samples were taken from the donor compartment at 0/120 min and from the receiver compartment at 120 min. Each compound was tested in two separate replicate wells. All samples were immediately collected in a 72:8:20 MeCN/MeOH:H2O mix to precipitate protein and stabilize the test compounds. Cells were dosed on the apical side to determine forward (A to B) permeability. To test for non-specific binding and compound instability, the total amount of drug was quantified at the end of the experiment and compared to the material present in the original dosing solution as a percentage of recovery. Samples were analyzed by RF-QToF.

[10] = tested on: MDCKII-cMdr1-KO cells; assay: MDCK permeability assay (A to B); format: in vitro ADME, Canine; details: in words
Excerpt: as §3, §4

[11] = Solubility assessment, shake-flask method; format: physicochemical; details: compared to the other compounds, in words
[12] = HCl, pH 1.2, read-out: solubility HCl
[13] = phosphate-buffered saline, pH 7.4, read-out: solubility PBS
[14] = fold change: ratio of potency against HXB2 Y181C and parental HXB2
[15] = supplement CSV, fold change vs HXB2
[16] = fold change: ratio of potency against HXB2 K103N and parental HXB2
[17] = apparent permeability coefficient, A to B, pH 7.4
[18] = Human immunodeficiency virus 1, IIIB, MT4, protects 50% of MT-4 cells against HIV-1-induced cell killing, read-out: EC50 MT4
[19] = Human immunodeficiency virus 1, MT4, HIV-1 HXB2 wild-type, MT-4 cells, read-out: EC50 HXB2

SMILES | resistance conferred by E138K [2] | CLint scaled at 1.167 h, 1 µM [4] | solubility [5, 12] | solubility [5, 13] | HCl sol [5] | PBS sol [5] | CC50 at 120 h [6] | EC50 [7] | Y181C (FC) [7, 14] | Y181C (FC) [7, 15] | EC50 [8] | K103N (FC) [8, 16] | K103N (FC) [8, 15] | Papp A→B at 120 min ([9]; supplement CSV) | Papp A→B at 120 min [9, 17] | permeability (Papp) in the MDCK assay [10] | EC50 [1, 18] | EC50 [3, 19] | other results
Cc1cc(C#N)cc(C)c1Oc1nc(Nc2ccc(C#N)cc2)nc(N)c1Br [ETV, etravirine, reference compound] | 2–3 fold | 4.17 mL/min/kg | < 1 µM | < 1 µM | <1 µM | <1 µM | 7300 nM | 11.1 nM | 4.8 | 4.8 | 2.3 nM | 0.9 | 0.9 | 3.8 ×10⁻⁶ cm/s | 3.8 ×10⁻⁶ cm/s | moderate | – | – | EC50 ([1]; Human immunodeficiency virus 1, MT4, read-out: EC50 MT4, protects 50% of MT-4 cells against HIV-1-induced cell killing): 2.4 nM; EC50 ([3]; Human immunodeficiency virus 1, HXB2, MT4, read-out: EC50 HXB2): 2.5 nM
Cc1cc(/C=C/C#N)cc(C)c1Nc1ccnc(Nc2ccc(C#N)cc2)n1 [RPV, rilpivirine, reference compound] | 2–3 fold | 14.3 mL/min/kg | > 100 µM | < 1 µM | – | – | 6500 nM | 3.8 nM | 3.2 | 3.2 | 1.5 nM | 1.3 | 1.3 | 4.6 ×10⁻⁶ cm/s | 4.6 ×10⁻⁶ cm/s | moderate | – | – | solubility thermodynamic ([5]; HCl, pH 1.2, read-out: HCl sol): > 100 µM; solubility thermodynamic ([5]; PBS, pH 7.4, aqueous buffer, read-out: PBS sol): < 1 µM
Cc1cc(/C=C/C#N)cc(C)c1-n1c(=O)[nH]c2cnc(Nc3ccc(C#N)cc3)nc21 [Compound 2, 4-[(9-{4-[(1E)-2-Cyanoeth-1-en-1-yl]-2,6-dimethylphenyl}-8-oxo-8,9-dihydro-7H-purin-2-yl)amino]benzonitrile] | – | 16.7 mL/min/kg | 61.2 µM (≈ 24.9 µg/mL) | 10.4 µM (≈ 4.24 µg/mL) | 61.2 µM | 10.4 µM | 23300 nM | 10.6 nM | 4.8 | 4.8 | 4.5 nM | 2.0 | 2.0 | 5.6 ×10⁻⁶ cm/s | 5.6 ×10⁻⁶ cm/s | – | 2.5 nM | 2.2 nM | –
Cc1cc(/C=C/C#N)cc(C)c1N1CC(=O)Nc2cnc(Nc3ccc(C#N)cc3)nc21 [Compound 4, 4-[(8-{4-[(1E)-2-Cyanoeth-1-en-1-yl]-2,6-dimethylphenyl}-6-oxo-5,6,7,8-tetrahydropteridin-2-yl)amino]benzonitrile] | – | 16.3 mL/min/kg | 6.5 µM (≈ 2.74 µg/mL) | 1.8 µM (≈ 0.759 µg/mL) | 6.5 µM | 1.8 µM | 42400 nM | 4.9 nM | 2.0 | 2.0 | 2.8 nM | 1.2 | 1.2 | 4.2 ×10⁻⁶ cm/s | 4.2 ×10⁻⁶ cm/s | – | 2.6 to 3 nM | 2.4 nM | EC50 ([1]; protects 50% of MT-4 cells against HIV-1-induced cell killing, read-out: EC50 MT4): 2.7 nM; solubility at pH 2 [11]: markedly reduced
